In series [1] the test system is HIV mutant strain 1 (E138K/G140S/Q148H/N155H). The series can be described thus: Test Example 2: resistance evaluation test (HeLa-CD4 reporter), mutant strain 1. In kind it is cell-based. The settings on record: FC=EC50 of mutant strain/EC50 of wild strain; HeLa-CD4 cells. The method in brief:
(§1)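 HeLa-CD4 reporter cells were infected with wild-type or mutant HIV in the presence of serially diluted compound and cultured 3 days. Cell lysates were read by chemiluminescent reporter assay after about 1 h at room temperature. Fold change was calculated as mutant EC50 divided by wild-type EC50.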

For series [2], the system named is HIV. The series can be described thus: microbe, parasite or virus in culture. The class given is cell-based. The settings on record: Human immunodeficiency virus 1, MT4, 96 h, read-out: EC50 (50% HIV inhibition concentration), MT-4 cells, HIV, cultured four days, MTT; compounds of formula (I) of (A). As for the experimental part: A serial dilution series of test samples was prepared in 96-well microplates (50 μL/well).
100 μL/well in each case were dispensed onto plates having test samples of 2.5×10^5/mL MT-4 cell suspension, and HIV virus solution was then dispensed thereto in the amount of 50 μL/well. Mixing was performed using a plate mixer and culturing was performed for four days in a CO2 incubator. MTT (3-(4,5-dimethylthiazol-2-yl)-2,5-diphenyltetrazolium bromide) liquid was dispensed into each well in the amount of 30 μL in each case. The reaction was conducted for 1 h in a CO2 incubator. 150 μL of supernatant were removed from each well, taking care not to aspirate any cells. 150 μL of cell solution were added, and thorough mixing was performed with a plate mixer until all the cells had been dissolved. The optical absorbance of the mixed plates was measured at two wavelengths: 560 nm/690 nm, with a microplate reader.

Series [3] addresses T1, voltage-gated sodium channel (Nav 1.5 channel) (Homo sapiens, UniProt Q14524).
T1 construct: expressed in transfected cells; host or cells: HEK cells
The series can be described thus: Test Example 14: Nav test (patch clamp, HEK cells). The class given is cell-based. The settings on record: HEK cells expressing Nav 1.5 channel, whole cell patch clamp. As for the experimental part: Using a fully automatic patch clamp system (QPatch: Sophion Bioscience A/S), by the whole cell patch clamp method, the cells were maintained at a membrane potential of −100 mV and the induced INa when a −10 mV depolarization stimulus was applied for 20 msec was recorded. […] From the INa obtained, using analysis software (QPatch: Sophion Bioscience A/S), the absolute value of the maximum peak current was measured, with reference to the current value at the maintained membrane potential.

Series [4] deals with HIV mutant strain 2 (E92Q/E138T/G140S/Q148H). The series can be described thus: Test Example 2: resistance evaluation test (HeLa-CD4 reporter), mutant strain 2. In kind it is cell-based. The settings on record: FC=EC50 of mutant strain/EC50 of wild strain; HeLa-CD4 cells. A digest of the protocol:
as §1

The nature of series [5]: Test Example 8: metabolic stability test. The class given is in vitro ADME, human. The method in brief:
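Pooled human liver microsomes (0.5 mg protein/mL, Tris-HCl pH 7.4) incubated with compound and 1 mmol/L NADPH for 0 or 30 min at 37° C. After methanol/acetonitrile quench, remaining parent was quantified by LC/MS/MS or SPE/MS and expressed as % of the 0 min amount.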

For series [6], the system named is HIV. The series can be described thus: Test Example 3: test for confirmation of combined use effect. In kind it is cell-based. On the set-up: key to D value (dosewise additivity value): <-0.1 synergy, -0.1 to 0.1 additive, >0.1 antagonism. An excerpt: The two compounds in respect of which the effect of combined use was desired to be examined were mixed in various ratios, and the anti-HIV activity (50% HIV inhibiting concentration) for each combination was found by the method of test example 1. […] A brief description of the method of calculating the D value is given below.
The D value that is found by evaluating the anti-HIV activity of respective combinations of M concentrations of compound X1 and N concentrations of compound X2 is calculated by the following mathematical expression 1.
The effect of combined use was evaluated in terms of the D value in accordance with the following criteria • −0.5 to −0.2: strong synergetic effect • −0.2 to −0.1: weak synergetic effect • […]: additive synergetic effect • 0.1 to 0.2: weak antagonism • 0.2 to 0.5: strong antagonism

Where [7] appears, read: pooled human liver microsomes, 30 min at 37° C., NADPH, compound concentration 0.5 μmol/L.
[8] abbreviates: combination with compound (B) Compound C (CAI).
[9] abbreviates: combination with compound (B) GS-6207 (CAI).
Setting [10] is: combination with compound (B) GSK2838232 (maturation inhibitor).
The mark [11] stands for this setting: combination with compound (B) Ramipzin (3TC) (polymerase inhibitor).

Molecules are shown by their SMILES. pEC50: −log10 of the molar value.

T1 sequence (Q14524 whole entry): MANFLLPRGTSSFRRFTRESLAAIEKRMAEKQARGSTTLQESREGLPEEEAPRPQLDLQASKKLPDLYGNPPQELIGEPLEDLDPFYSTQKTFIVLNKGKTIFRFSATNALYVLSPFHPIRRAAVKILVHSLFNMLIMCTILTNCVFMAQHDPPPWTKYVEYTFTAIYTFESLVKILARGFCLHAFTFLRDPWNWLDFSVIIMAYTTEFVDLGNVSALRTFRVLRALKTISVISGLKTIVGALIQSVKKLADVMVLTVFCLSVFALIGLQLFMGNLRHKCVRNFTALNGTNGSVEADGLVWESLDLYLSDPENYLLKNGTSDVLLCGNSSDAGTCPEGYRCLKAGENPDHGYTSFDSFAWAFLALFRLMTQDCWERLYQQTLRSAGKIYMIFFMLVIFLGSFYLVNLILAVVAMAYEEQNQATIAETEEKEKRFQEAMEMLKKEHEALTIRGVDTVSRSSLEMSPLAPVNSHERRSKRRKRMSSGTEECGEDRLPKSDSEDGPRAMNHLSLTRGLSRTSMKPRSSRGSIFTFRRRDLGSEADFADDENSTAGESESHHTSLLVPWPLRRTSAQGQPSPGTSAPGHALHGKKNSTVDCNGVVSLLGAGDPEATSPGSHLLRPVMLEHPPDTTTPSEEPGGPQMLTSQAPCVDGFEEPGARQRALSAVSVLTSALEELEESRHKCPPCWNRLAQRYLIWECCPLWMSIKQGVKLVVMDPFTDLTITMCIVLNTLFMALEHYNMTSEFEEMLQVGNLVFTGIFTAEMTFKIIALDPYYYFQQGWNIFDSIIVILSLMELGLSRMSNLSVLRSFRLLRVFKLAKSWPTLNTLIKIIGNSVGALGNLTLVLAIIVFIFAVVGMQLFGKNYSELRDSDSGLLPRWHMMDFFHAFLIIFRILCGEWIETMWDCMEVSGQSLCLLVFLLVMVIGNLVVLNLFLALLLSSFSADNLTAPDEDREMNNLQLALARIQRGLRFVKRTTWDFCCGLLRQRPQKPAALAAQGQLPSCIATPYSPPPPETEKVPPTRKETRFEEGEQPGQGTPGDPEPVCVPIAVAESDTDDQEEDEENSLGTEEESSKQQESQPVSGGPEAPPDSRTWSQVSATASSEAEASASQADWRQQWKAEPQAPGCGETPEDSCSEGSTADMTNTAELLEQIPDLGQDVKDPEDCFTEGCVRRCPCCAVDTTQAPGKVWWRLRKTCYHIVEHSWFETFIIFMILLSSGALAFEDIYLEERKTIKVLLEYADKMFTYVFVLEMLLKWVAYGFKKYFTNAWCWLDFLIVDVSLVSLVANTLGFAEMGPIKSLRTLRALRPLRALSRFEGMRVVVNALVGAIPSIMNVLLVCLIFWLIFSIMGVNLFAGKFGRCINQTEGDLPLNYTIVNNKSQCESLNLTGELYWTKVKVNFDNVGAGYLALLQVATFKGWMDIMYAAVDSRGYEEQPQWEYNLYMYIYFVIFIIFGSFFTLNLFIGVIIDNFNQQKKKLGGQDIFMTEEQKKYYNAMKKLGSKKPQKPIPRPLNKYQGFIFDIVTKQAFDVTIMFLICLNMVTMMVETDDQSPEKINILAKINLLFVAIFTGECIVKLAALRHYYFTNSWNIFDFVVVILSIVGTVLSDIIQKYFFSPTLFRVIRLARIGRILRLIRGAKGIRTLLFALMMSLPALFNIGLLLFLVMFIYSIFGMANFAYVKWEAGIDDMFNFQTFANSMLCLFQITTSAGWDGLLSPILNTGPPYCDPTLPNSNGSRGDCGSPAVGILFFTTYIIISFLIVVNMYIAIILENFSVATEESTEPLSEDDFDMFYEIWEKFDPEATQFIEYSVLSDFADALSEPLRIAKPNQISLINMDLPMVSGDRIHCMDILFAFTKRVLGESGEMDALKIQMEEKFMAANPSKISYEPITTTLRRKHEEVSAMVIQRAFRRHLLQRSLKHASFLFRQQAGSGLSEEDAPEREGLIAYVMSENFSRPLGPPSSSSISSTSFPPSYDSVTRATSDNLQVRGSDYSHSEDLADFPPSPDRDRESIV

On to `CCN1C(=O)c2c(O)c(=O)c(-c3nnc(Cc4cc(F)c(F)cc4F)s3)cn2N2CCCC[C@@H]12` [Compound I-022], for which the “FC in respect of mutant strain 1 (E138K/G140S/Q148H/N155H)” value (from here on “FC … (E138K/G140S/Q148H/N155H)”) in series [1] came to 23. Also, the pEC50 in the series with HIV [2] is 8.32. The “ratio of maximum peak current (INa) on application of compound to that on application of medium” value (shortened to “ratio of maximum peak current (INa)”) in series [3] came out at 97.1%. Further, the “FC in respect of mutant strain 2 (E92Q/E138T/G140S/Q148H)” value (“FC … (E92Q/E138T/G140S/Q148H)” for short) in series [4] amounted to 46. This compound also displayed a Remaining percentage in series [5] (setting [7]) of 72.2%.
`CCN1C(=O)c2c(O)c(=O)c(C(=O)NCc3cccc(Cl)c3F)cn2N2[C@H]3COCC3C[C@@H]12` (stereo partly drawn) [II-052]: the “FC … (E138K/G140S/Q148H/N155H)” value in series [1] amounted to 22. The “D value (dosewise additivity value)” value in the series on HIV [6] (setting [8]) is 0.038; in the series on HIV [6] (combination with compound (B) Darunavin (PI)), −0.076; in the series on HIV [6] (setting [9]), −0.003; in the series with HIV [6] (setting [10]), −0.009; with HIV [6] (setting [11]) it was −0.156; with HIV [6] (combination with compound (B) Rilpivirine (polymerase inhibitor)), −0.020. The “effect of combined use” value was “Additive (−0.1 to −0.1: additive synergetic effect)” in the series with HIV [6] (setting [8]); “Additive (−0.1 to −0.1: additive synergetic effect)” in the series with HIV [6] (combination with compound (B) Darunavir (PI)); “Additive (−0.1 to −0.1: additive synergetic effect)” with HIV [6] (setting [9]); “Additive (−0.1 to −0.1: additive synergetic effect)” with HIV [6] (setting [10]); “Additive (−0.1 to −0.1: additive synergetic effect)” with HIV [6] (combination with compound (B) Lilpiperine (polymerase inhibitor)); “Weak synergy (−0.2 to −0.1: weak synergetic effect)” in the series on HIV [6] (setting [11]). The pEC50 with HIV [2] was 9.57. The “FC … (E92Q/E138T/G140S/Q148H)” value in series [4] is 16. The compound further registered a Remaining percentage in series [5] (human, microsomes, 0.5 h, 0.5 μmol/L, pH 7.4) of 61.6%.
In the case of `CN1C(=O)c2c(O)c(=O)c(-c3nnc(Cc4ccc(F)cc4F)s3)cn2N2CCCC[C@@H]12` [II-098], in series [1], the “FC … (E138K/G140S/Q148H/N155H)” value was found to be 8.8. In the series with HIV [2], the pEC50 is 9.21. Moreover, in series [3], the “ratio of maximum peak current (INa)” value came to 96.7%. Also, in series [4], the “FC … (E92Q/E138T/G140S/Q148H)” value was determined as 12. Besides, in series [5] (setting [7]), the Remaining percentage worked out at 109%.
In the case of `CCN1C(=O)c2c(O)c(=O)c(-c3nnc(Cc4c(F)cc(F)cc4F)s3)cn2N2CCOC[C@@H]12` [II-106], the “FC … (E138K/G140S/Q148H/N155H)” value in series [1] came out at 15. The pEC50 in the series with HIV [2] is 9.28. Further, in series [3], the “ratio of maximum peak current (INa)” value was determined as 109%. Moreover, the “FC … (E92Q/E138T/G140S/Q148H)” value in series [4] came to 20. The compound further had a Remaining percentage in series [5] (setting [7]) of 95.3%.
Take `CCN1C(=O)c2c(O)c(=O)c(-c3nnc(Cc4ccc(F)cc4F)s3)cn2N2C[C@@H]3CC[C@@H](O3)[C@@H]12` [II-127]: the “FC … (E138K/G140S/Q148H/N155H)” value in series [1] was 7.9. In addition, in the series with HIV [2], the pEC50 was 9.13. For the same compound, the “FC … (E92Q/E138T/G140S/Q148H)” value in series [4] turned out to be 19. The Remaining percentage in series [5] (setting [7]) came out at 100%.
Consider `CCN1C(=O)c2c(O)c(=O)c(-c3nnc(Cc4ccc(F)cc4)s3)cn2N2C[C@@H]3CC[C@@H](O3)[C@@H]12` [II-128], for which the “FC … (E138K/G140S/Q148H/N155H)” value in series [1] is listed as 20. Also, in the series with HIV [2], the pEC50 was 9.18. For the same compound, in series [4], the “FC … (E92Q/E138T/G140S/Q148H)” value was found to be 29. For the same compound, the Remaining percentage in series [5] (setting [7]) is reported as 103%.
The matching figures for `CCN1C(=O)c2c(O)c(=O)c(-c3nnc(Cc4ccc(F)cc4F)s3)cn2N2C[C@@H]3CC[C@@H](C3)[C@@H]12` [II-130]: 2.5, 9.18, 3.9 and 92.9%.
In the same order, the values of `CCN1C(=O)c2c(O)c(=O)c(-c3nnc(Cc4c(F)cc(F)cc4F)s3)cn2N2C[C@@H]3CC[C@@H](C3)[C@@H]12` [II-131] are 2.3, 9.18, 3.5 and 83.4%.
In the same order, the values of `CN1C(=O)c2c(O)c(=O)c(-c3nnc(Cc4ccc(F)cc4F)s3)cn2N2C[C@@H]3CC[C@@H](C3)[C@@H]12` [II-138] are 15, 9.85, 11 and 93.9%.
As to `CCN1C(=O)c2c(O)c(=O)c(-c3nnc(Cc4c(F)cc(F)cc4F)s3)cn2N2CC[C@@H](C)C[C@@H]12` [II-143], in series [1], the “FC … (E138K/G140S/Q148H/N155H)” value stood at 3. Moreover, the pEC50 in the series on HIV [2] is 8.77. In addition, in series [4], the “FC … (E92Q/E138T/G140S/Q148H)” value turned out to be 3.6. Moreover, the Remaining percentage in series [5] (setting [7]) is reported as 82.5%.
The matching figures for `C[C@@H]1CCN2[C@@H](C1)N(C)C(=O)c1c(O)c(=O)c(-c3nnc(Cc4c(F)cc(F)cc4F)s3)cn12` [II-144]: 6.1, 9.16, 6.1 and 94.2%.
Turning to `CCN1C(=O)c2c(O)c(=O)c(-c3nnc(Cc4c(F)cc(F)cc4F)s3)cn2N2CC[C@H](C)C[C@@H]12` [II-147], in series [1], the “FC … (E138K/G140S/Q148H/N155H)” value is recorded as 5.1. The pEC50 in the series on HIV [2] was 8.74. Moreover, the “FC … (E92Q/E138T/G140S/Q148H)” value in series [4] was 7.3. The same compound had a Remaining percentage in series [5] (setting [7]) of 91.5%.
The matching figures for `CCN1C(=O)c2c(O)c(=O)c(-c3nnc(Cc4cc(F)c(F)cc4F)s3)cn2N2C[C@@H]3CC[C@@H](C3)[C@@H]12` [II-148]: 8.3, 8.28, 6.6 and 71.7%.
The matching figures for `CN1C(=O)c2c(O)c(=O)c(-c3nnc(Cc4c(F)cc(F)cc4F)s3)cn2N2C[C@@H]3CC[C@@H](C3)[C@@H]12` [II-149]: 14, 9.22, 12 and 96.5%.
For the compound `COC[C@@H]1CC[C@H]2N(C)C(=O)c3c(O)c(=O)c(-c4nnc(Cc5c(F)cc(F)cc5F)s4)cn3N12` [II-151], in series [1], the “FC … (E138K/G140S/Q148H/N155H)” value is given as 27. Moreover, the pEC50 in the series on HIV [2] was 9.43. The “FC … (E92Q/E138T/G140S/Q148H)” value in series [4] was determined as 17. Besides, in series [5] (setting [7]), the Remaining percentage is 94.6%.
For `CCN1C(=O)c2c(O)c(=O)c(-c3nnc(Cc4ccc(F)cc4F)s3)cn2N2C[C@@H](C)CC[C@@H]12` [II-155], the “FC … (E138K/G140S/Q148H/N155H)” value in series [1] was 5.2. Further, in the series on HIV [2], the pEC50 was 9.52. Also, in series [4], the “FC … (E92Q/E138T/G140S/Q148H)” value was determined as 5.1. This compound displayed a Remaining percentage in series [5] (setting [7]) of 93%.
In the same order, the values of `CCN1C(=O)c2c(O)c(=O)c(-c3nnc(Cc4c(F)cc(F)cc4F)s3)cn2N2C[C@@H](C)CC[C@@H]12` [II-156] are 3.5, 8.92, 4.6 and 91.3%.
Consider `COC[C@@H]1CC[C@H]2N(C)C(=O)c3c(O)c(=O)c(C(=O)NCc4c(F)cc(F)cc4F)cn3N12` [II-157], for which the “FC … (E138K/G140S/Q148H/N155H)” value in series [1] is 53. Further, the pEC50 in the series on HIV [2] is 9.15. Besides, in series [4], the “FC … (E92Q/E138T/G140S/Q148H)” value is given as 24. In series [5] (setting [7]), the Remaining percentage was 90%.

(Values after patent publication US12564595B2, “Prophylactic and therapeutic pharmaceutical agent for HIV infectious diseases characterized by comprising combination of integrase inhibitor and anti-HIV agent” (Shionogi & Co., Ltd., priority 2019, dated 2026).)
